Results as given in patent US20250312352A1, “GLP-1R MODULATING COMPOUNDS” (Gilead Sciences, Inc., priority 2021, published 2025).

biological target: T1, GLP-1R (Homo sapiens, UniProt P43220); assay: GLP-1R activation cAMP assay (Assay 1 or Assay 2); assay type: cell-based; settings: cAMP increase in CHO cells stably expressing GLP-1R; compounds run on one of the two cAMP assays
T1 construct: host or cells: CHO cells
Protocol: GLP-1R ACTIVATION—cAMP Assay 1
GLP-1R activation by compounds of the present disclosure was quantified by measuring cAMP increase in CHO cells stably expressing GLP-1R (MultiSpan product #C1267-1a). The cells were harvested and plated in growth medium (DMEM/F-12 (Corning product #10-090-CV) supplemented with 10% FBS (HyClone product #SH30071-03), penicillin/streptomycin (Corning product #30-002CI) and 10 μg/ml puromycin (Gibco product #A11138-03)) at 1,000 cells/well in a 384-well plate (Greiner product #781080). The cells were then incubated overnight at 37° C., 5% CO2. The next day, the medium was removed and the cells were washed with DPBS (Corning product #21-031-CM) before adding the assay medium (HBSS, Corning product #21-023-CV) with 20 mM Hepes (Gibco product #15630-080) and 0.1% BSA (Rockland Immunochemicals product #BSA-1000)). Following the medium change, the cells were incubated for 1 hour at 37° C., 5% CO2. The tested GLP-1 compound was added to the cells in a 10-point dose response followed by a 30-minute incubation at 37° C., 5% CO2. cAMP concentration increase was then detected using Cisbio's cAMP Gs Dynamic Kit (product #62AM4PEC) according to the manufacturer's protocol. The response was plotted against the log of the agonist concentration and fitted to a sigmoidal equation to determine the EC50.
GLP-1R ACTIVATION—cAMP Assay 2
GLP-1R activation by small molecule agonists was quantified by measuring cAMP increase in CHO cells stably expressing GLP-1R (MultiSpan product #C1267-1a). 50 nL of agonists were pre-spotted in a 10-point dose response onto 384-well plate (Corning product #CL3826) using the Labcyte Echo System.

T1 sequence (P43220 24-463): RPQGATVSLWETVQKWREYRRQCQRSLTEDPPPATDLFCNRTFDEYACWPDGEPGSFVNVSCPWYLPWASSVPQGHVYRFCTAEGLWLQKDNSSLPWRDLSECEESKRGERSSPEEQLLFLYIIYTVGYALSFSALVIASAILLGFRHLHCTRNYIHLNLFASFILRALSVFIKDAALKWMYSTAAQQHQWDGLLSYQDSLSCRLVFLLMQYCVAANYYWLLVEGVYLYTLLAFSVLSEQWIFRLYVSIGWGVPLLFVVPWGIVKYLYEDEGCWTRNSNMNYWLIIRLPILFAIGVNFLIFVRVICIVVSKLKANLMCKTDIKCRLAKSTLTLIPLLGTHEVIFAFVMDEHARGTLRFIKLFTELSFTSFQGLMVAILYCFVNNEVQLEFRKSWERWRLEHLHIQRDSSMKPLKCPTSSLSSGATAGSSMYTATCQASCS

EC50 [nM] | Compound
1.2 | Cc1cc(Cc2nc3ccc(C(=O)O)cc3n2[C@@H]2COCC2(C)C)c(F)cc1-c1ccc(F)c(OCc2ncc(C(C)(F)F)s2)n1 [Example 337, (S)-2-(4-(6-((5-(1,1-difluoroethyl)thiazol-2-yl)methoxy)-5-fluoropyridin-2-yl)-2-fluoro-5-methylbenzyl)-1-(4,4-dimethyltetrahydrofuran-3-yl)-1H-benzo[d]imidazole-6-carboxylic acid]
0.678 | CCOc1nnc(COc2cccc(-c3cc(F)c(Cc4nc5ccc(C(=O)O)c(F)c5n4CCOC)cc3F)n2)s1 [Example 396, 2-(4-(6-((5-ethoxy-1,3,4-thiadiazol-2-yl)methoxy)pyridin-2-yl)-2,5-difluorobenzyl)-7-fluoro-1-(2-methoxyethyl)-1H-benzo[d]imidazole-6-carboxylic acid]
8.86 | COCc1noc(COc2cccc(-c3cc(F)c(Cc4nc5ccc(C(=O)O)cc5n4C[C@@H]4CCO4)cc3F)n2)n1 [Example 16, (S)-2-(2,5-difluoro-4-(6-((3-(methoxymethyl)-1,2,4-oxadiazol-5-yl)methoxy)pyridin-2-yl)benzyl)-1-(oxetan-2-ylmethyl)-1H-benzo[d]imidazole-6-carboxylic acid]
0.301 | O=C(O)c1cc(F)c2nc(Cc3cc(F)c(-c4cccc(OCc5ncc(C#CC6(C(F)F)CC6)cc5Cl)n4)cc3F)n(C[C@@H]3CCO3)c2c1 [Example 381, (S)-2-(4-(6-((3-chloro-5-((1-(difluoromethyl)cyclopropyl)ethynyl)pyridin-2-yl)methoxy)pyridin-2-yl)-2,5-difluorobenzyl)-4-fluoro-1-(oxetan-2-ylmethyl)-1H-benzo[d]imidazole-6-carboxylic acid]
0.577 | CCOc1nnc(COc2cccc(-c3cc(F)c(Cc4nc5ccc(C(=O)O)cc5n4[C@@H]4COCC4(C)C)cc3C)c2)s1 [Example 259, (S)-1-(4,4-dimethyltetrahydrofuran-3-yl)-2-((3′-((5-ethoxy-1,3,4-thiadiazol-2-yl)methoxy)-5-fluoro-2-methyl-[1,1′-biphenyl]-4-yl)methyl)-1H-benzo[d]imidazole-6-carboxylic acid]
0.078 | O=C(O)c1cc(F)c2nc(Cc3cc(F)c(-c4cccc(OCc5ncc(C#CC6(CF)CC6)cc5Cl)n4)cc3F)n(C[C@@H]3CCO3)c2c1 [Example 380, (S)-2-(4-(6-((3-chloro-5-((1-(fluoromethyl)cyclopropyl)ethynyl)pyridin-2-yl)methoxy)pyridin-2-yl)-2,5-difluorobenzyl)-4-fluoro-1-(oxetan-2-ylmethyl)-1H-benzo[d]imidazole-6-carboxylic acid]
6.65 | O=C(O)c1ccc2nc(Cc3cc(F)c(-c4cccc(OCc5ccn(CC(F)(F)F)n5)n4)cc3F)n(C[C@@H]3CCO3)c2c1 [Example 66, (S)-2-(2,5-difluoro-4-(6-((1-(2,2,2-trifluoroethyl)-1H-pyrazol-3-yl)methoxy)pyridin-2-yl)benzyl)-1-(oxetan-2-ylmethyl)-1H-benzo[d]imidazole-6-carboxylic acid]
0.86 | Cn1nc(COc2cccc(-c3cc(F)c(Cc4nc5ccc(C(=O)O)cc5n4C[C@@H]4CCO4)cc3F)n2)cc1C1CC1 [Example 39, (S)-2-(4-(6-((5-cyclopropyl-1-methyl-1H-pyrazol-3-yl)methoxy)pyridin-2-yl)-2,5-difluorobenzyl)-1-(oxetan-2-ylmethyl)-1H-benzo[d]imidazole-6-carboxylic acid]
0.044 | CCOc1nnc(COc2cccc(-c3cc(F)c(Cc4nc5c(F)cc(C(=O)O)cc5n4C[C@@H]4CCO4)cc3F)n2)s1 [Example 312, (S)-2-(4-(6-((5-ethoxy-1,3,4-thiadiazol-2-yl)methoxy)pyridin-2-yl)-2,5-difluorobenzyl)-4-fluoro-1-(oxetan-2-ylmethyl)-1H-benzo[d]imidazole-6-carboxylic acid]
0.52 | O=C(O)c1ccc2nc(Cc3cc(F)c(-c4cccc(OCc5nnc(OCC(F)F)s5)n4)cc3F)n(C[C@@H]3CCO3)c2c1 [Example 352, (S)-2-(4-(6-((5-(2,2-difluoroethoxy)-1,3,4-thiadiazol-2-yl)methoxy)pyridin-2-yl)-2,5-difluorobenzyl)-1-(oxetan-2-ylmethyl)-1H-benzo[d]imidazole-6-carboxylic acid]
0.027 | COc1nnc(COc2nc(-c3cc(F)c(Cc4nc5c(F)cc(C(=O)O)cc5n4[C@@H]4COCC4(C)C)cc3F)ccc2F)s1 [Example 346, (S)-2-(2,5-difluoro-4-(5-fluoro-6-((5-methoxy-1,3,4-thiadiazol-2-yl)methoxy)pyridin-2-yl)benzyl)-1-(4,4-dimethyltetrahydrofuran-3-yl)-4-fluoro-1H-benzo[d]imidazole-6-carboxylic acid]
0.14 | Cn1cc(-c2cnc(COc3nc(-c4cc(F)c(Cc5nc6ccc(C(=O)O)cc6n5C[C@@H]5CCO5)cc4F)ccc3F)s2)cn1 [Example 99, (S)-2-(2,5-difluoro-4-(5-fluoro-6-((5-(1-methyl-1H-pyrazol-4-yl)thiazol-2-yl)methoxy)pyridin-2-yl)benzyl)-1-(oxetan-2-ylmethyl)-1H-benzo[d]imidazole-6-carboxylic acid]
0.14 | O=C(O)c1ccc2nc(Cc3cc(F)c(-c4cccc(OCc5ncc(C(F)F)s5)n4)cc3F)n(C[C@@H]3CCO3)c2c1 [Example 58, (S)-2-(4-(6-((5-(difluoromethyl)thiazol-2-yl)methoxy)pyridin-2-yl)-2,5-difluorobenzyl)-1-(oxetan-2-ylmethyl)-1H-benzo[d]imidazole-6-carboxylic acid]
0.261 | O=C(O)c1ccc2nc(Cc3cc(F)c(-c4cccc(OCc5ncc(C#CC6CC(F)(F)C6)s5)n4)cc3F)n(C[C@@H]3CCO3)c2c1 [Example 336, (S)-2-(4-(6-((5-((3,3-difluorocyclobutyl)ethynyl)thiazol-2-yl)methoxy)pyridin-2-yl)-2,5-difluorobenzyl)-1-(oxetan-2-ylmethyl)-1H-benzo[d]imidazole-6-carboxylic acid]
1.86 | Cn1cc(-c2cnc(COc3cccc(-c4cc(F)c(Cc5nc6ccc(C(=O)O)cc6n5C[C@@H]5CCO5)cc4F)n3)s2)nn1 [Example 89, (S)-2-(2,5-difluoro-4-(6-((5-(1-methyl-1H-1,2,3-triazol-4-yl)thiazol-2-yl)methoxy)pyridin-2-yl)benzyl)-1-(oxetan-2-ylmethyl)-1H-benzo[d]imidazole-6-carboxylic acid]
0.024 | COc1nnc(COc2nc(-c3ccc(Cc4nc5c(F)cc(C(=O)O)cc5n4[C@@H]4COCC4(C)C)c(F)c3)ccc2F)s1 [Example 429, (S)-1-(4,4-dimethyltetrahydrofuran-3-yl)-4-fluoro-2-(2-fluoro-4-(5-fluoro-6-((5-methoxy-1,3,4-thiadiazol-2-yl)methoxy)pyridin-2-yl)benzyl)-1H-benzo[d]imidazole-6-carboxylic acid]
3.45 | COCCn1c(Cc2cc(F)c(-c3cccc(OCc4ccc(-c5cnn(CCN6CCOCC6)c5)cc4F)n3)cc2F)nc2ccc(C(=O)O)cc21 [Example 227, 2-(2,5-difluoro-4-(6-((2-fluoro-4-(1-(2-morpholinoethyl)-1H-pyrazol-4-yl)benzyl)oxy)pyridin-2-yl)benzyl)-1-(2-methoxyethyl)-1H-benzo[d]imidazole-6-carboxylic acid]
0.29 | Cn1nc(COc2cccc(-c3cc(F)c(Cc4nc5ccc(C(=O)O)cc5n4C[C@@H]4CCO4)cc3F)n2)cc1C(F)(F)F [Example 71, (S)-2-(2,5-difluoro-4-(6-((1-methyl-5-(trifluoromethyl)-1H-pyrazol-3-yl)methoxy)pyridin-2-yl)benzyl)-1-(oxetan-2-ylmethyl)-1H-benzo[d]imidazole-6-carboxylic acid]
0.17 | O=C(O)c1ccc2nc(Cc3cc(F)c(-c4cccc(OCc5ncc(Br)s5)n4)cc3F)n(C[C@@H]3CCO3)c2c1 [Example 22, (S)-2-(4-(6-((5-bromothiazol-2-yl)methoxy)pyridin-2-yl)-2,5-difluorobenzyl)-1-(oxetan-2-ylmethyl)-1H-benzo[d]imidazole-6-carboxylic acid]
0.14 | Cn1cc(-c2cc(F)c(COc3cccc(-c4cc(F)c(Cc5nc6ccc(C(=O)O)cc6n5C[C@@H]5CCO5)cc4F)n3)s2)cn1 [Example 86, (S)-2-(2,5-difluoro-4-(6-((3-fluoro-5-(1-methyl-1H-pyrazol-4-yl)thiophen-2-yl)methoxy)pyridin-2-yl)benzyl)-1-(oxetan-2-ylmethyl)-1H-benzo[d]imidazole-6-carboxylic acid]

Compound | EC50 [nM]
(S)-2-(4-(6-((5-cyano-3-fluorothiophen-2-yl)methoxy)-5-fluoropyridin-2-yl)-2,5-difluorobenzyl)-4-fluoro-1-(oxetan-2-ylmethyl)-1H-benzo[d]imidazole-6-carboxylic acid [Example 310] | 0.038
(S)-1-(oxetan-2-ylmethyl)-2-(2,3,6-trifluoro-4-(6-((4-(trifluoromethyl)thiazol-2-yl)methoxy)pyridin-2-yl)benzyl)-1H-benzo[d]imidazole-6-carboxylic acid [Example 376] | 0.153
